Data as given in patent US11840686B2, “Modulation of prekallikrein (PKK) expression” (Ionis Pharmaceuticals, Inc., priority 2013, dated 2023).
Strand notation (5' to 3'): a small letter for the sugar, then the base; units joined by * are phosphorothioate-linked, units joined directly phosphodiester-linked; [ ] holds rarer units or linkages, { } end groups; capitals alone tell only the bases. e = 2'-O-(2-methoxyethyl) (MOE); k = constrained ethyl (cEt); [5mC] = 5-methylcytosine; d = 2'-deoxy (DNA)

Legend:
Assay type in all cases: cell-based
human PKK mRNA [1] = experiment: Antisense inhibition of human PKK mRNA in HepaRG cells, 3,000 nM (Example 1); conditions: relative to untreated control cells
Protocol: Antisense oligonucleotides were designed targeting a PKK nucleic acid and were tested for their effects on PKK mRNA in vitro. HepaRG™ cells, which are terminally differentiated hepatic cells derived from a human hepatic progenitor cell line and retain many characteristics of primary human hepatocytes (Lubberstedt M. et al., J. Pharmacol. Toxicol. Methods 2011 63: 59-68), were used in the screen.
The chimeric antisense oligonucleotides in the tables below were designed as 5-10-5 MOE gapmers. The gapmers are 20 nucleosides in length, wherein the central gap segment comprises of ten 2′-deoxynucleosides and is flanked by wing segments on the 5′ direction and the 3′ direction comprising five nucleosides each. Each nucleoside in the 5′ wing segment and each nucleoside in the 3′ wing segment has a 2′-O-methoxyethyl modification. The internucleoside linkages throughout each gapmer are phosphorothioate linkages. All cytosine residues throughout each gapmer are 5-methylcytosines. “Start site” indicates the 5′-most nucleoside to which the gapmer is targeted in the human gene sequence. “Stop site” indicates the 3′-most nucleoside to which the gapmer is targeted in the human gene sequence.
Cultured HepaRG™ cells at a density of 20,000 cells per well were transfected using electroporation with 3,000 nM antisense oligonucleotide. After a treatment period of approximately 24 hours, RNA was isolated from the cells and PKK mRNA levels were measured by quantitative real-time PCR. Human primer probe set RTS3454 (forward sequence […], designated herein as SEQ ID NO: 20; reverse sequence […], designated herein as SEQ ID NO: 21; probe sequence […], designated herein as SEQ ID NO: 22) was used to measure mRNA levels. PKK mRNA levels were adjusted according to total RNA content, as measured by RIBOGREEN®. The antisense oligonucleotides were tested in a series of experiments that had similar culture conditions. Results are presented as percent inhibition of PKK, relative to untreated control cells.

human PKK mRNA [2] = experiment: Antisense inhibition of human PKK mRNA in HepaRG cells, 1,000 nM, MOE/deoxy/cEt oligonucleotides (Example 3); conditions: HepaRG cells, electroporation with 1,000 nM antisense oligonucleotide
In short: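 Readout is percent PKK mRNA reduction against untreated controls, by real-time PCR (RTS3454) adjusted for total RNA via RIBOGREEN. Oligonucleotides, phosphorothioate gapmers of 16 nucleosides with cEt, MOE and deoxy sugars, were delivered at 1,000 nM by electroporation to 20,000 HepaRG cells/well for roughly 24 h.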

human PKK mRNA [3] = experiment: Dose-dependent antisense inhibition of human PKK in HepaRG cells, 0.11-3.00 uM (Example 6); conditions: for IC50: 0.11-3.00 μM; for percent inhibition of PKK mRNA, 0.11 μM / percent inhibition of PKK mRNA, 0.33 μM / percent inhibition of PKK mRNA, 1.00 μM / percent inhibition of PKK mRNA, 3.00 μM: electroporation, approx. 16 hours, relative to untreated control cells
In short: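 Antisense oligonucleotides were tested over 0.11–3.00 μM, delivered by electroporation, with readout after roughly 16 h. Human PKK transcript was measured by real-time PCR (set RTS3454) and adjusted to RIBOGREEN total RNA, giving half-maximal inhibitory concentrations.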

[4] = Table 3, HepaRG cells, electroporation with 3,000 nM antisense oligonucleotide, approx. 24 hours, PKK mRNA by RT-PCR (RTS3454)
[5] = Table 1, PKK mRNA, HepaRG cells, 3,000 nM, electroporation, ~24 h
[6] = Table 4, HepaRG cells, electroporation with 3,000 nM antisense oligonucleotide, approx. 24 hours, PKK mRNA by RT-PCR (RTS3454)
[7] = Table 2, PKK mRNA, HepaRG cells, 3,000 nM, electroporation, ~24 h

In the case of “531137 (antisense eT*eG*eT*e[5mC]*eT*dA*d[5mC]*dT*dA*dT*dT*dT*dG*dA*d[5mC]*e[5mC]*eA*eA*eT*eA) [compound 531137]”, the “% inhibition” value (human PKK mRNA [1]; [4]) is reported as 19%.
For “530964 (antisense e[5mC]*eT*eT*e[5mC]*eA*dG*dT*dG*dA*dG*dA*dA*dT*d[5mC]*d[5mC]*eA*eG*eA*eT*eT) [compound 530964]”, the “% inhibition” value (human PKK mRNA [1]; [5]) was 44%.
“531170 (antisense eG*e[5mC]*e[5mC]*eT*eG*dG*d[5mC]*d[5mC]*d[5mC]*d[5mC]*d[5mC]*dA*dA*dG*dA*e[5mC]*eT*e[5mC]*eT*eA) [compound 531170]” was tested, and the “% inhibition” value (human PKK mRNA [1]; [6]) was 54%.
“530980 (antisense eT*eT*eG*e[5mC]*eA*dG*dG*dT*dT*dA*dA*dA*dA*dG*dG*e[5mC]*eT*eA*eT*eA) [compound 530980]” was tested, and the “% inhibition” value (human PKK mRNA [1]; [5]) was 29%.
In the case of “531077 (eA*eT*eG*e[5mC]*e[5mC]*dA*d[5mC]*dT*d[5mC]*dT*d[5mC]*d[5mC]*dA*dT*dG*e[5mC]*eT*eT*eT*eG; antisense) [compound 531077]”, the “% inhibition” value (human PKK mRNA [1]; [7]) is reported as 51%.
With “531033 (antisense eA*eT*eT*eG*eG*dT*dT*dT*dT*dT*dG*dG*dA*dA*dT*eT*e[5mC]*eA*eG*eT) [compound 531033]” the “% inhibition” value (human PKK mRNA [1]; [7]) was 53%.
With “531165 (antisense eG*eT*eA*eA*eT*dA*dA*dA*dA*dG*dG*dA*dA*dT*dG*eA*eT*eA*eA*eA) [compound 531165]” the “% inhibition” value (human PKK mRNA [1]; [6]) was 0%.
With “531061 (antisense eT*eG*e[5mC]*eT*e[5mC]*d[5mC]*d[5mC]*dT*dG*d[5mC]*dG*dG*dG*d[5mC]*dA*e[5mC]*eA*eG*e[5mC]*e[5mC]) [compound 531061]” the “% inhibition” value (human PKK mRNA [1]; [7]) was 52%.
For “531126 (antisense eT*eT*eT*eT*eG*dA*dA*dT*d[5mC]*dT*dT*d[5mC]*dA*dT*dT*e[5mC]*eA*eA*eA*eG) [compound 531126]”, the “% inhibition” value (human PKK mRNA [1]; [4]) was 0%.
With “530974 (antisense eT*eT*e[5mC]*eT*eT*dG*dA*dG*dG*dA*dG*dT*dA*dG*dA*eG*eG*eA*eA*e[5mC]) [compound 530974]” the “% inhibition” value (human PKK mRNA [1]; [5]) was 18%.
“531038 (antisense e[5mC]*eA*eA*e[5mC]*eA*dG*dT*dT*dG*dG*dT*dA*dT*dA*dA*eA*eT*eT*eG*eT) [compound 531038]” was tested, and the “% inhibition” value (human PKK mRNA [1]; [7]) was 22%.
“531023 (e[5mC]*eT*eT*eT*eT*dG*dT*dA*dA*dT*dG*dT*d[5mC]*dT*dG*eA*e[5mC]*eA*eG*eA; antisense) [compound 531023]” was tested, and the “% inhibition” value (human PKK mRNA [1]; [7]) was 71%.
“531089 (eA*eA*eA*eA*e[5mC]*dA*d[5mC]*d[5mC]*dA*dT*dT*dA*dA*dA*dT*e[5mC]*e[5mC]*eA*eT*eT; antisense) [compound 531089]” was tested, and the “% inhibition” value (human PKK mRNA [1]; [4]) was 45%.
With “531141 (antisense eT*eG*e[5mC]*eA*eA*dG*dG*d[5mC]*dA*dT*dG*dT*dG*dT*dG*e[5mC]*eA*e[5mC]*eA*eA) [compound 531141]” the “% inhibition” value (human PKK mRNA [1]; [4]) was 47%.
For “531188 (eG*eT*eT*eA*eA*dA*dA*d[5mC]*dA*dA*d[5mC]*dT*dA*dG*dA*eA*eG*e[5mC]*e[5mC]*eA; antisense) [compound 531188]”, the “% inhibition” value (human PKK mRNA [1]; [6]) was 67%.
With “530998 (eA*eG*eT*eG*eA*dA*dA*dA*dA*d[5mC]*dT*dG*dA*d[5mC]*dA*eG*e[5mC]*eG*eA*eA; antisense) [compound 530998]” the “% inhibition” value (human PKK mRNA [1]; [5]) was 0%.
“531029 (antisense eA*eG*eT*eG*eT*dA*dA*dT*dT*d[5mC]*dA*dA*dA*dG*dG*eA*eG*e[5mC]*e[5mC]*eT) [compound 531029]” was tested, and the “% inhibition” value (human PKK mRNA [1]; [7]) was 59%.
“531051 (antisense eA*eT*e[5mC]*e[5mC]*eG*dT*dT*dG*dG*dG*dT*dT*dA*dT*dT*eT*eT*eA*eT*eA) [compound 531051]” was tested, and the “% inhibition” value (human PKK mRNA [1]; [7]) was 51%.
With “531147 (antisense e[5mC]*e[5mC]*eA*eT*eT*dA*dT*dT*dT*d[5mC]*d[5mC]*dA*dT*d[5mC]*dA*e[5mC]*e[5mC]*eT*eG*e[5mC]) [compound 531147]” the “% inhibition” value (human PKK mRNA [1]; [4]) was 18%.
For “531125 (antisense eA*e[5mC]*eT*e[5mC]*eG*d[5mC]*d[5mC]*dT*dT*dT*dG*dT*dG*dA*d[5mC]*eT*e[5mC]*eG*eA*eT) [compound 531125]”, the “% inhibition” value (human PKK mRNA [1]; [4]) was 23%.
“531204 (e[5mC]*eT*eT*eG*eT*dA*dG*dT*d[5mC]*dT*dG*d[5mC]*dA*d[5mC]*dT*eT*eA*eA*eT*eG; antisense) [compound 531204]” was tested, and the “% inhibition” value (human PKK mRNA [1]; [6]) was 60%.
“531220 (e[5mC]*eA*eA*eT*eA*d[5mC]*dA*dG*dG*dT*dA*dA*dA*dT*dT*eT*e[5mC]*eA*e[5mC]*eG; antisense) [compound 531220]” was tested, and the “% inhibition” value (human PKK mRNA [1]; [6]) was 56%.
For “531096 (e[5mC]*e[5mC]*e[5mC]*eA*eA*dT*dT*d[5mC]*dT*dT*dA*dG*dT*d[5mC]*d[5mC]*eT*eT*eT*eA*eA; antisense) [compound 531096]”, the “% inhibition” value (human PKK mRNA [1]; [4]) was 45%.
For “531018 (eG*eA*e[5mC]*e[5mC]*e[5mC]*dA*d[5mC]*dT*dG*dG*dT*dG*dT*d[5mC]*d[5mC]*eT*eA*eT*eG*eA; antisense) [compound 531018]”, the “% inhibition” value (human PKK mRNA [1]; [7]) was 54%.
“531182 (antisense eA*eT*eA*eA*eT*d[5mC]*dA*dT*dG*dA*dT*dT*dT*dA*dT*eT*eT*eT*eG*e[5mC]) [compound 531182]” was tested, and the “% inhibition” value (human PKK mRNA [1]; [6]) was 34%.
“531130 (antisense eT*eT*e[5mC]*eT*eG*dT*dG*dT*d[5mC]*dA*dA*dT*dT*dA*dT*eA*eA*eA*e[5mC]*eA) [compound 531130]” was tested, and the “% inhibition” value (human PKK mRNA [1]; [4]) was 0%.
With “531225 (eA*e[5mC]*eA*e[5mC]*eT*dT*dG*dT*dA*d[5mC]*d[5mC]*d[5mC]*d[5mC]*dA*dT*eA*e[5mC]*eA*eT*e[5mC]; antisense) [compound 531225]” the “% inhibition” value (human PKK mRNA [1]; [6]) was 45%.
“531044 (antisense eG*eG*e[5mC]*eA*eT*dT*d[5mC]*dT*dT*d[5mC]*dA*dT*dT*dT*dG*eT*eT*eA*e[5mC]*e[5mC]) [compound 531044]” was tested, and the “% inhibition” value (human PKK mRNA [1]; [7]) was 68%.
With “547851 (antisense eT*eA*kA*dA*dT*dG*dT*d[5mC]*dT*d[5mC]*dG*dA*dT*kG*kG*e[5mC]) [compound 547851]” the “% inhibition” value (human PKK mRNA [2]; Table 20, approximately 24 hours, PKK mRNA by RT-PCR (RTS3454), relative to untreated control cells) was 93%, the “% inhibition” value (human PKK mRNA [2]; Table 22 experiment, approx. 24 hours, PKK mRNA by RT-PCR (RTS3454), relative to untreated control cells) was 84% and the IC50 (human PKK mRNA [3]) was 400 nM. For the same substance, the “percent inhibition of PKK mRNA, 0.11 μM” value (human PKK mRNA [3]) was 16%, the “percent inhibition of PKK mRNA, 0.33 μM” value (human PKK mRNA [3]) was 46% and the “percent inhibition of PKK mRNA, 1.00 μM” value (human PKK mRNA [3]) was 83%.
“547769 (antisense eT*eT*kG*dG*dA*dG*dG*dT*dG*dA*dG*dT*d[5mC]*kT*k[5mC]*eT) [compound 547769]” was tested, and the “% inhibition” value (human PKK mRNA [2]; Table 21 experiment, approx. 24 hours, PKK mRNA by RT-PCR (RTS3454), relative to untreated control cells) was 81%, the IC50 (human PKK mRNA [3]) was 600 nM and the “percent inhibition of PKK mRNA, 0.11 μM” value (human PKK mRNA [3]) was 12%. For the same substance, the “percent inhibition of PKK mRNA, 0.33 μM” value (human PKK mRNA [3]) was 17%, the “percent inhibition of PKK mRNA, 1.00 μM” value (human PKK mRNA [3]) was 80% and the “percent inhibition of PKK mRNA, 3.00 μM” value (human PKK mRNA [3]) was 96%.
For “547979 (antisense eG*eT*k[5mC]*dT*d[5mC]*dT*dT*dG*dG*d[5mC]*dA*dA*dA*k[5mC]*kA*eT) [compound 547979]”, the “% inhibition” value (human PKK mRNA [2]; approximately 24 hours, primer probe set RTS3454, relative to untreated control cells, experiment of Table 23) was 77%, the “percent inhibition of PKK mRNA, 0.11 μM” value (human PKK mRNA [3]) was 56% and the “percent inhibition of PKK mRNA, 0.33 μM” value (human PKK mRNA [3]) was 58%. The “percent inhibition of PKK mRNA, 1.00 μM” value (human PKK mRNA [3]) was 94% and the “percent inhibition of PKK mRNA, 3.00 μM” value (human PKK mRNA [3]) was 97%.
